Test results from ChEMBL document CHEMBL4387715, “Singlet oxygen-activatable Paclitaxel prodrugs via intermolecular activation for combined PDT and chemotherapy” (Bioorg Med Chem Lett, 2019).
The source made the active and inactive calls. No cut-off for these calls is given here.

How the values were obtained:
[1] = Lipophilicity, log D of the compound at pH 7.4; assay type: physicochemical; conditions: buffer
[2] = Drug localization in mitochondria of rat AY27 cells at 0.5 uM after 30 mins by Mitotracker deep Red staining-based confocal fluorescence microscopy; assay type: ADME; conditions: ay-27, 0.5 h
[3] = Drug uptake in rat AY27 cells assessed per cell at 5 uM measured after 120 mins by fluorescence assay; assay type: ADME, cell-based; conditions: ay-27, 2 h
[4] = Drug uptake in rat AY27 cells at 1 uM by texas red probe-based fluorescence microscopy; assay type: ADME, cell-based; conditions: ay-27, 1 µM, TDE = time-dependent effect
[5] = Photocytotoxicity against rat AY27 cells assessed as cell death at 0.25 uM incubated for 2 hrs followed by 10 mW/cm2 laser light irradiation for 30 mins and measured after 24 hrs in presence of Hexyl-5-aminolevulinic acid by MTT assay relative to control; assay type: functional, AY-27
[6] = Dark toxicity in rat AY27 cells assessed as reduction in cell viability at 0.025 to 1.25 uM preincubated for 2 hrs followed by 30 mins incubation under dark condition and measured after 24 hrs by MTT assay; assay type: cell-based; conditions: ay-27, 1.25 µM
[7] = Dark toxicity in rat AY27 cells assessed as reduction in cell viability at 0.025 to 1.25 uM preincubated for 2 hrs followed by 30 mins incubation under dark condition measured after 24 hrs in presence of Hexyl-5-aminolevulinic acid by MTT assay; assay type: cell-based; conditions: ay-27, 1.25 µM
[8] = system: AY-27; assay: Photocytotoxicity against rat AY27 cells assessed as cell death at 0.025 to 1.25 uM incubated for 2 hrs followed by 10 mW/cm2 laser light irradiation for 30 mins and measured after 24 hrs by MTT assay; assay type: functional, cell-based
[9] = Lipophilicity, log D of the compound at pH 7.4 by shake flask method; assay type: physicochemical; conditions: buffer
[10] = Drug localization in mitochondria of rat AY27 cells at 0.5 uM assessed as protoporphyrin IX level after 2 hrs by Mitotracker deep Red staining-based confocal fluorescence microscopic method; assay type: ADME; conditions: ay-27, 2 h
[11] = Photodynamic anticancer activity against rat AY27 cells assessed as cell death at 0.5 uM incubated for 2 hrs followed by 10 mW/cm2 laser light irradiation for 30 mins and measured after 24 hrs by MTT assay relative to control; assay type: functional, AY-27

logD [1]	SMILES	Drug uptake [2]	Drug uptake [3] [fmol]	Drug uptake [4]	Activity [5] [%]	Activity [6]	Activity [7]	Activity [8]	logD [9]	Drug uptake [10]	Activity [11] [%]
3.6	CC(=O)O[C@H]1C(=O)[C@@]2(C)[C@H]([C@H](OC(=O)c3ccccc3)[C@]3(O)C[C@H](OC(=O)[C@H](O)[C@@H](NC(=O)c4ccccc4)c4ccccc4)C(C)=C1C3(C)C)[C@]1(OC(C)=O)CO[C@@H]1C[C@@H]2O [PACLITAXEL]										
	CCN(CC)c1ccc2c(-c3ccccc3C(=O)OCC3CCN(/C=C/C(=O)OC(C(=O)O[C@H]4C[C@@]5(O)[C@@H](OC(=O)c6ccccc6)[C@@H]6[C@]7(OC(C)=O)CO[C@@H]7C[C@H](O)[C@@]6(C)C(=O)[C@H](OC(C)=O)C(=C4C)C5(C)C)[C@@H](NC(=O)c4ccccc4)c4ccccc4)CC3)c3ccc(=[N+](CC)CC)cc-3oc2c1.[Cl-] (stereo partly specified)	Active	0.68	Tde	84	Non-Toxic	Non-Toxic	inactive	1.9		
	CC(=O)O[C@H]1C(=O)[C@@]2(C)[C@H]([C@H](OC(=O)c3ccccc3)[C@]3(O)C[C@H](OC(=O)C(OC(=O)/C=C/N4CCC(COC(=O)c5cc[n+](C)cc5)CC4)[C@@H](NC(=O)c4ccccc4)c4ccccc4)C(C)=C1C3(C)C)[C@]1(OC(C)=O)CO[C@@H]1C[C@@H]2O.[Cl-] (stereo partly specified)				82	Non-Toxic	Non-Toxic	inactive	1		
	CC(=O)O[C@H]1C(=O)[C@@]2(C)[C@H]([C@H](OC(=O)c3ccccc3)[C@]3(O)C[C@H](OC(=O)C(OC(=O)/C=C/N4CCC(COCCC[P+](c5ccccc5)(c5ccccc5)c5ccccc5)CC4)[C@@H](NC(=O)c4ccccc4)c4ccccc4)C(C)=C1C3(C)C)[C@]1(OC(C)=O)CO[C@@H]1C[C@@H]2O.[Br-] (stereo partly specified)				80	Non-Toxic	Non-Toxic	inactive	1.3		
	CCCCCCOC(=O)CCC(=O)CN [HEXAMINOLEVULINATE]									Active	40
